Assay results as given in US20210094954A1, “PREPARATION METHODS AND APPLICATIONS OF 3,5-DISUBSTITUTED METHYLPYRAZOLO[1,5-A]PYRIMIDINE-7-HYDROXYLIC SALTS” (priority 2019, published 2021).
Like-named read-outs stand apart in the source and are kept apart here.

Columns and labels:
[1] = test system: Enterococcus faecalis F2518(VRE); assay: microbe, parasite or virus in culture; type: cell-based; conditions: Enterococcus faecalis, VRE, 24 h, read-out: MIC values of in vitro antibacterial test results
[2] = test system: F2518(VRE), Staphylococcus aureus resistant strain 43300(MRSA), 703 (MRSA), pneumococcal resistance bacteria 6303(PRSP); assay: microbe, parasite or virus in culture; type: cell-based; conditions: read-out: MIC values (μM)
[3] = test system: Oral Candida; assay: microbe, parasite or virus in culture; type: cell-based; conditions: Candida
[4] = test system: Streptococcus pneumoniae 10351; assay: microbe, parasite or virus in culture; type: cell-based; conditions: Streptococcus pneumoniae, 10351; 37° C., 24 hours; read-out: MIC values of in vitro antibacterial test results
[5] = test system: Streptococcus agalactia B group; assay: microbe, parasite or virus in culture; type: cell-based; conditions: Streptococcus; 37° C., 24 hours; read-out: MIC values of in vitro antibacterial test results
[6] = test system: Staphylococcus aureus 703(MRSA); assay: microbe, parasite or virus in culture; type: cell-based; conditions: Staphylococcus aureus, MRSA
[7] = test system: Bacillus cereus 2; assay: microbe, parasite or virus in culture; type: cell-based; conditions: Bacillus cereus, 2; 37° C., 24 hours; read-out: MIC values of in vitro antibacterial test results
[8] = test system: Diphtheria bacilli; assay: organism not typed; type: cell-based; conditions: 37° C., 24 hours; read-out: MIC values of in vitro antibacterial test results
[9] = test system: Enterococcus faecalis 29212; assay: microbe, parasite or virus in culture; type: cell-based; conditions: Enterococcus faecalis, 29212; 37° C., 24 hours; read-out: MIC values of in vitro antibacterial test results
[10] = test system: Clostridium perfringens; assay: microbe, parasite or virus in culture; type: cell-based; conditions: Clostridium perfringens, 24 h, read-out: MIC values of in vitro antibacterial test results
[11] = test system: Staphylococcus aureus 43300 (MRSA); assay: antibacterial study in vivo, survival of infected kunming mice; conditions: 30 days of observation
[12] = test system: Streptococcus pneumoniae 6303 (PRSP); assay: microbe, parasite or virus in culture; type: cell-based; conditions: Streptococcus pneumoniae, PRSP, 24 h, read-out: MIC values of in vitro antibacterial test results
[13] = test system: Bacillus subtilis 168; assay: microbe, parasite or virus in culture; type: cell-based; conditions: Bacillus subtilis, 168; 37° C., 24 hours; read-out: MIC values of in vitro antibacterial test results
[14] = test system: Peel fungus; assay: organism not typed; type: cell-based; conditions: 37° C., 24 hours; read-out: MIC values of in vitro antibacterial test results
[15] = test system: Staphylococcus aureus 29231; assay: microbe, parasite or virus in culture; type: cell-based; conditions: Staphylococcus aureus, 29231; 37° C., 24 hours; read-out: MIC values of in vitro antibacterial test results
[16] = test system: Staphylococcus aureus 43300(MRSA); assay: microbe, parasite or virus in culture; type: cell-based; conditions: Staphylococcus aureus, MRSA
[17] = test system: Bacillus anthracis Bacillus 1; assay: microbe, parasite or virus in culture; type: cell-based; conditions: Bacillus anthracis, 24 h, read-out: MIC values of in vitro antibacterial test results
[18] = test system: Streptococcus pneumoniae M2; assay: microbe, parasite or virus in culture; type: cell-based; conditions: Streptococcus pneumoniae, M2; 37° C., 24 hours; read-out: MIC values of in vitro antibacterial test results
[19] = 37° C., 24 hours, read-out: MIC values of in vitro antibacterial test results
[20] = 24 h, read-out: MIC values of in vitro antibacterial test results

Structure (SMILES): Cc1nn2c([O-])cc(-c3ccc(S(N)(=O)=O)cc3)nc2c1-c1ccc(F)cc1F.[Na+] [Compound 9, Sodium 3-(2,4-difluorophenyl)-2-methyl-5-(4-sulfamoylphenyl)pyrazolo[1,5-α]pyrimidin-7-olate]
- MIC [1]: < 150 mg/L
- MIC [2]: < 100 mg/L
- MIC ([3]; read-out: MIC values (μM)): < 100 mg/L
- MIC [3, 19]: < 100 mg/L
- MIC [4]: < 100 mg/L
- MIC [5]: < 150 mg/L
- MIC [6, 20]: < 100 mg/L
- MIC [7]: < 150 mg/L
- MIC [8]: > 150 mg/L
- MIC [9]: < 100 mg/L
- MIC [10]: > 150 mg/L
- Survival days ([11]; dosage 25 mg/kg): 3.0 days
- MIC [12]: < 150 mg/L
- MIC [13]: < 100 mg/L
- MIC [14]: > 150 mg/L
- MIC [15]: < 100 mg/L
- MIC [16, 20]: < 100 mg/L
- MIC [17]: > 150 mg/L
- MIC [18]: < 100 mg/L

Structure (SMILES): Cc1nn2c([O-])cc(-c3ccc([N+](=O)[O-])cc3)nc2c1-c1ccc(F)cc1F.[Na+] [Compound 3, Sodium 3-(2,4-difluorophenyl)-2-methyl-5-(4-nitrophenyl) pyrazolo[1,5-α]pyrimidin-7-olate]
- MIC [1]: < 150 mg/L
- MIC [2]: < 100 mg/L
- MIC [3, 19]: > 150 mg/L
- MIC [4]: < 100 mg/L
- MIC [5]: > 150 mg/L
- MIC [6, 20]: < 50 mg/L
- MIC ([6]; read-out: MIC values (μM)): < 50 mg/L
- MIC [7]: < 100 mg/L
- MIC [8]: > 150 mg/L
- MIC [9]: < 100 mg/L
- MIC [10]: > 150 mg/L
- Survival days ([11]; dosage 30 mg/kg): 4.0 days
- MIC [12]: < 100 mg/L
- MIC [13]: < 100 mg/L
- MIC [14]: > 150 mg/L
- MIC [15]: < 100 mg/L
- MIC [16, 20]: < 50 mg/L
- MIC ([16]; read-out: MIC values (μM)): < 50 mg/L
- MIC [17]: > 150 mg/L
- MIC [18]: < 100 mg/L

Structure (SMILES): Cc1nn2c([O-])cc(-c3ccc(Oc4ccccc4)cc3)nc2c1-c1ccc(F)cc1F.[Na+] [Compound 10, Sodium 3-(2,4-difluorophenyl)-2-methyl-5-(4-phenoxyphenyl)pyrazolo[1,5-α]pyrimidin-7-olate]
- MIC [1]: < 150 mg/L
- MIC [2]: < 100 mg/L
- MIC [3, 19]: < 150 mg/L
- MIC [4]: < 100 mg/L
- MIC [5]: < 150 mg/L
- MIC [6, 20]: < 100 mg/L
- MIC [7]: < 100 mg/L
- MIC [8]: > 150 mg/L
- MIC [9]: < 100 mg/L
- MIC [10]: > 150 mg/L
- Survival days ([11]; dosage 25 mg/kg): 3.5 days
- MIC [12]: < 150 mg/L
- MIC [13]: < 100 mg/L
- MIC [14]: < 150 mg/L
- MIC [15]: < 100 mg/L
- MIC [16, 20]: < 150 mg/L
- MIC [17]: > 150 mg/L
- MIC [18]: < 150 mg/L
